Experiments:
Experiment in all cases: KINOMEscan
Type in all cases: binding
Conditions in all cases: 35 at 1 µM; read-out: % inhibition
[1] = molecular target: T1, CDK7 (Homo sapiens, UniProt P50613)
T1 construct: purchased Eurofins DiscoverX (KINOMEscan)
Protocol: (§1) KinomeScan Assay on 35 was performed as previously described at EuroFins DiscoverX (Fremont, CA, USA).

[2] = molecular target: T2, CDK4-cyclinD3 (Homo sapiens, UniProt P11802)
T2 construct: purchased Eurofins DiscoverX (KINOMEscan)
Protocol: as §1

[3] = molecular target: T3, ERK4 (Homo sapiens, UniProt P31152)
T3 construct: purchased Eurofins DiscoverX (KINOMEscan)
Protocol: as §1

[4] = molecular target: T4, TAOK1 (Homo sapiens, UniProt Q7L7X3)
T4 construct: purchased Eurofins DiscoverX (KINOMEscan)
Protocol: as §1

[5] = molecular target: T5, CDK2 (Homo sapiens, UniProt P24941)
T5 construct: purchased Eurofins DiscoverX (KINOMEscan)
Protocol: as §1

[6] = molecular target: T6, PIP5K2B (Homo sapiens, UniProt P78356)
T6 construct: purchased Eurofins DiscoverX (KINOMEscan)
Protocol: as §1

[7] = molecular target: T7, EPHA1 (Homo sapiens, UniProt P21709)
T7 construct: purchased Eurofins DiscoverX (KINOMEscan)
Protocol: as §1

[8] = molecular target: T8, WNK2 (Homo sapiens, UniProt Q9Y3S1)
T8 construct: purchased EuroFins DiscoverX (Fremont, CA, USA)
Protocol: as §1

[9] = molecular target: T9, CAMK2D (Homo sapiens, UniProt Q13557)
T9 construct: purchased Eurofins DiscoverX (KINOMEscan)
Protocol: as §1

[10] = molecular target: T10, PIM2 (Homo sapiens, UniProt Q9P1W9)
T10 construct: purchased Eurofins DiscoverX (KINOMEscan)
Protocol: as §1

[11] = molecular target: T11, MRCKB (Homo sapiens, UniProt Q9Y5S2)
T11 construct: purchased Eurofins DiscoverX (KINOMEscan)
Protocol: as §1

[12] = molecular target: T12, PDPK1 (Homo sapiens, UniProt O15530)
T12 construct: purchased Eurofins DiscoverX (KINOMEscan)
Protocol: as §1

[13] = molecular target: T13, ABL1(T315I)-phosphorylated (Homo sapiens, UniProt P00519, T315I)
T13 construct: purchased Eurofins DiscoverX (KINOMEscan)
Protocol: as §1

[14] = molecular target: T14, CAMK2B (Homo sapiens, UniProt Q13554)
T14 construct: purchased Eurofins DiscoverX (KINOMEscan)
Protocol: as §1

[15] = molecular target: T15, JNK3 (Homo sapiens, UniProt P53779)
T15 construct: purchased Eurofins DiscoverX (KINOMEscan)
Protocol: as §1

[16] = molecular target: T16, RSK4(Kin.Dom.2-C-terminal) (Homo sapiens, UniProt Q9UK32)
T16 construct: RSK4(Kin.Dom.2-C-terminal); purchased Eurofins DiscoverX (KINOMEscan)
Protocol: as §1

[17] = molecular target: T17, RSK3(Kin.Dom.1-N-terminal) (Homo sapiens, UniProt Q15349)
T17 construct: RSK3(Kin.Dom.1-N-terminal); purchased Eurofins DiscoverX (KINOMEscan)
T17 sequence (Q15349 1-388 limits assumed): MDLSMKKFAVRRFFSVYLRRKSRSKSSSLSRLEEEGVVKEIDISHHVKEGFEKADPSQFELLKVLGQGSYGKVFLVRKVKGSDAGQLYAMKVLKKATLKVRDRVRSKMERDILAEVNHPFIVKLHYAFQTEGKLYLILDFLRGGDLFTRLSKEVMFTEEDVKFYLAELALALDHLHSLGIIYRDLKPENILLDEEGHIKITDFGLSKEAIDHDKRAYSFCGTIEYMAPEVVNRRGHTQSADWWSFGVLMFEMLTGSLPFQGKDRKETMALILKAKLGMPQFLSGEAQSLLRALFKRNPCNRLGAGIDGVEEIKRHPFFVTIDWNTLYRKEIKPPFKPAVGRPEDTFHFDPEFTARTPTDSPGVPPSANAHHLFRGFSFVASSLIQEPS
Protocol: as §1

[18] = molecular target: T18, NEK3 (Homo sapiens, UniProt P51956)
T18 construct: purchased Eurofins DiscoverX (KINOMEscan)
Protocol: as §1

[19] = molecular target: T19, ULK1 (Homo sapiens, UniProt O75385)
T19 construct: purchased Eurofins DiscoverX (KINOMEscan)
Protocol: as §1

[20] = molecular target: T20, DDR1 (Homo sapiens, UniProt Q08345)
T20 construct: purchased Eurofins DiscoverX (KINOMEscan)
Protocol: as §1

[21] = molecular target: T21, ZAK (Homo sapiens, UniProt Q9NYL2)
T21 construct: purchased EuroFins DiscoverX (Fremont, CA, USA)
Protocol: as §1

[22] = molecular target: T22, PRKG2 (Homo sapiens, UniProt Q13237)
T22 construct: purchased Eurofins DiscoverX (KINOMEscan)
Protocol: as §1

[23] = molecular target: T23, RET(V804L) (Homo sapiens, UniProt P07949, V804L)
T23 construct: purchased Eurofins DiscoverX (KINOMEscan)
Protocol: as §1

[24] = molecular target: T24, ERK2 (Homo sapiens, UniProt P28482)
T24 construct: purchased Eurofins DiscoverX (KINOMEscan)
Protocol: as §1

[25] = molecular target: T25, PRKCH (Homo sapiens, UniProt P24723)
T25 construct: purchased Eurofins DiscoverX (KINOMEscan)
T25 sequence (P24723 whole entry): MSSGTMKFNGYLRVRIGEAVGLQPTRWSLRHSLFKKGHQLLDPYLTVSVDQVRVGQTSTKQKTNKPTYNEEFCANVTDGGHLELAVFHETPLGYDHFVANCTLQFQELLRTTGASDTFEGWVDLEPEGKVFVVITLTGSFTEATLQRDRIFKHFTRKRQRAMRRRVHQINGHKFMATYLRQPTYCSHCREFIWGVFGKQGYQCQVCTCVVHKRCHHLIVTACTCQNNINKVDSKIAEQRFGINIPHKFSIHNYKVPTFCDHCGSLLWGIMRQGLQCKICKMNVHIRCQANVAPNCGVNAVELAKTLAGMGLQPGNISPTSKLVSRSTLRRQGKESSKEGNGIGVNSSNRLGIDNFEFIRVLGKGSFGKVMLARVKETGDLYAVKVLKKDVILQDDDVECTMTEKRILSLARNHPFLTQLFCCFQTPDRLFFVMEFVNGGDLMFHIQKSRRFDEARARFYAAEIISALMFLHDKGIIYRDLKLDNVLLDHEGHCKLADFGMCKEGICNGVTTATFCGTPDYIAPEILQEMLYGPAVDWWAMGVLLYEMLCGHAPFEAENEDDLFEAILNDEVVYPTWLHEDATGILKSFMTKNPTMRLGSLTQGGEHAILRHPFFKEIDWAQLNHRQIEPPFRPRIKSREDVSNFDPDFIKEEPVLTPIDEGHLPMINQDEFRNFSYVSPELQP
Protocol: as §1

[26] = molecular target: T26, TRPM6 (Homo sapiens, UniProt Q9BX84)
T26 construct: purchased Eurofins DiscoverX (KINOMEscan)
Protocol: as §1

[27] = molecular target: T27, FER (Homo sapiens, UniProt P16591)
T27 construct: purchased Eurofins DiscoverX (KINOMEscan)
Protocol: as §1

[28] = molecular target: T28, TNNI3K (Homo sapiens, UniProt Q59H18)
T28 construct: purchased Eurofins DiscoverX (KINOMEscan)
T28 sequence (Q59H18 whole entry): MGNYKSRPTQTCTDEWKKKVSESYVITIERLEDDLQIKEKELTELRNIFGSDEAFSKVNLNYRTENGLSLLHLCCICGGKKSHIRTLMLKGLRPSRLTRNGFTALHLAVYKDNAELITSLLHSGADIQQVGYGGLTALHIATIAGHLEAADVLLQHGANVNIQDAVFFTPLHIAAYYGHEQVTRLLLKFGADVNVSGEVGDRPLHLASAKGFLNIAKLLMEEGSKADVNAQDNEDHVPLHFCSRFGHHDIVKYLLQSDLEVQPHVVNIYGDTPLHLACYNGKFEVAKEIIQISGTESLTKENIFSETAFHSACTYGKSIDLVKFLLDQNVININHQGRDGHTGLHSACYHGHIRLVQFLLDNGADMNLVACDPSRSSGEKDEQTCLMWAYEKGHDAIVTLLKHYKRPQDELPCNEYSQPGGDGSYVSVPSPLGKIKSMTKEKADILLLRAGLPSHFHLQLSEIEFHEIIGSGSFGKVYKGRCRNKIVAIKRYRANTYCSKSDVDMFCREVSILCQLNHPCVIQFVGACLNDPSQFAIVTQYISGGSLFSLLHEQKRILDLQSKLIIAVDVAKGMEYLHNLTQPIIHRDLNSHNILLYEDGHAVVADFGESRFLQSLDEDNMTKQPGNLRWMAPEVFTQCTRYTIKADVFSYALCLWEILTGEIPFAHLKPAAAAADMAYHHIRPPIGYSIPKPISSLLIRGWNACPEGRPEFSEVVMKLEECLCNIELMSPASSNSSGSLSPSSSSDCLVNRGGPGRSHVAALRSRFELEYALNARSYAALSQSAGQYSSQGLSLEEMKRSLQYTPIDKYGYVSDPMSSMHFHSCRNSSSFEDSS
Protocol: as §1

[29] = molecular target: T29, LYN (Homo sapiens, UniProt P07948)
T29 construct: purchased Eurofins DiscoverX (KINOMEscan)
T29 sequence (P07948 whole entry): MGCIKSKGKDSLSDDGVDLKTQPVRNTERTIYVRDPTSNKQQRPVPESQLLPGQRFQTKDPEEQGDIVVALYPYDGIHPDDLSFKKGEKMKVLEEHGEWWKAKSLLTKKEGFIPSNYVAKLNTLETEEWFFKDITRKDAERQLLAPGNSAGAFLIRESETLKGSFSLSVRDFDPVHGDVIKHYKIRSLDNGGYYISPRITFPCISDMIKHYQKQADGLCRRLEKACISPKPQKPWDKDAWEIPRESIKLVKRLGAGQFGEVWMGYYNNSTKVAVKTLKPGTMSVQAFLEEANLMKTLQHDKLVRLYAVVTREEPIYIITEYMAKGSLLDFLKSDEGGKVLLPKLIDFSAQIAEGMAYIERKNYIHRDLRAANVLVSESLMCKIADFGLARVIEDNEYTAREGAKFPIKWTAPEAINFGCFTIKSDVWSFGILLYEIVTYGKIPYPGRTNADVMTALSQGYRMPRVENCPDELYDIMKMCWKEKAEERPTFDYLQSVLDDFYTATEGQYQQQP
Protocol: as §1

[30] = molecular target: T30, CSNK2A2 (Homo sapiens, UniProt P19784)
T30 construct: purchased Eurofins DiscoverX (KINOMEscan)
Protocol: as §1

[31] = molecular target: T31, SGK2 (Homo sapiens, UniProt Q9HBY8)
T31 construct: purchased Eurofins DiscoverX (KINOMEscan)
Protocol: as §1

[32] = molecular target: T32, YSK1 (Homo sapiens, UniProt O00506)
T32 construct: purchased EuroFins DiscoverX (Fremont, CA, USA)
Protocol: as §1

[33] = molecular target: T33, CDKL1 (Homo sapiens, UniProt Q00532)
T33 construct: purchased Eurofins DiscoverX (KINOMEscan)
Protocol: as §1

[34] = molecular target: T34, FLT3(K663Q) (Homo sapiens, UniProt P36888, K663Q)
T34 construct: purchased Eurofins DiscoverX (KINOMEscan)
Protocol: as §1

[35] = molecular target: T35, DRAK2 (Homo sapiens, UniProt O94768)
T35 construct: purchased Eurofins DiscoverX (KINOMEscan)
Protocol: as §1

[36] = molecular target: T36, FLT3-autoinhibited (Homo sapiens, UniProt P36888)
T36 construct: purchased Eurofins DiscoverX (KINOMEscan)
Protocol: as §1

[37] = molecular target: T37, YANK1 (Homo sapiens, UniProt Q8WU08)
T37 construct: purchased EuroFins DiscoverX (Fremont, CA, USA)
Protocol: as §1

[38] = molecular target: T38, MET (Homo sapiens, UniProt P08581)
T38 construct: purchased Eurofins DiscoverX (KINOMEscan)
Protocol: as §1

[39] = molecular target: T39, CSNK1G3 (Homo sapiens, UniProt Q9Y6M4)
T39 construct: purchased Eurofins DiscoverX (KINOMEscan)
Protocol: as §1

[40] = molecular target: T40, SIK2 (Homo sapiens, UniProt Q9H0K1)
T40 construct: purchased Eurofins DiscoverX (KINOMEscan)
Protocol: as §1

[41] = molecular target: T41, TNIK (Homo sapiens, UniProt Q9UKE5)
T41 construct: purchased Eurofins DiscoverX (KINOMEscan)
T41 sequence (Q9UKE5 whole entry): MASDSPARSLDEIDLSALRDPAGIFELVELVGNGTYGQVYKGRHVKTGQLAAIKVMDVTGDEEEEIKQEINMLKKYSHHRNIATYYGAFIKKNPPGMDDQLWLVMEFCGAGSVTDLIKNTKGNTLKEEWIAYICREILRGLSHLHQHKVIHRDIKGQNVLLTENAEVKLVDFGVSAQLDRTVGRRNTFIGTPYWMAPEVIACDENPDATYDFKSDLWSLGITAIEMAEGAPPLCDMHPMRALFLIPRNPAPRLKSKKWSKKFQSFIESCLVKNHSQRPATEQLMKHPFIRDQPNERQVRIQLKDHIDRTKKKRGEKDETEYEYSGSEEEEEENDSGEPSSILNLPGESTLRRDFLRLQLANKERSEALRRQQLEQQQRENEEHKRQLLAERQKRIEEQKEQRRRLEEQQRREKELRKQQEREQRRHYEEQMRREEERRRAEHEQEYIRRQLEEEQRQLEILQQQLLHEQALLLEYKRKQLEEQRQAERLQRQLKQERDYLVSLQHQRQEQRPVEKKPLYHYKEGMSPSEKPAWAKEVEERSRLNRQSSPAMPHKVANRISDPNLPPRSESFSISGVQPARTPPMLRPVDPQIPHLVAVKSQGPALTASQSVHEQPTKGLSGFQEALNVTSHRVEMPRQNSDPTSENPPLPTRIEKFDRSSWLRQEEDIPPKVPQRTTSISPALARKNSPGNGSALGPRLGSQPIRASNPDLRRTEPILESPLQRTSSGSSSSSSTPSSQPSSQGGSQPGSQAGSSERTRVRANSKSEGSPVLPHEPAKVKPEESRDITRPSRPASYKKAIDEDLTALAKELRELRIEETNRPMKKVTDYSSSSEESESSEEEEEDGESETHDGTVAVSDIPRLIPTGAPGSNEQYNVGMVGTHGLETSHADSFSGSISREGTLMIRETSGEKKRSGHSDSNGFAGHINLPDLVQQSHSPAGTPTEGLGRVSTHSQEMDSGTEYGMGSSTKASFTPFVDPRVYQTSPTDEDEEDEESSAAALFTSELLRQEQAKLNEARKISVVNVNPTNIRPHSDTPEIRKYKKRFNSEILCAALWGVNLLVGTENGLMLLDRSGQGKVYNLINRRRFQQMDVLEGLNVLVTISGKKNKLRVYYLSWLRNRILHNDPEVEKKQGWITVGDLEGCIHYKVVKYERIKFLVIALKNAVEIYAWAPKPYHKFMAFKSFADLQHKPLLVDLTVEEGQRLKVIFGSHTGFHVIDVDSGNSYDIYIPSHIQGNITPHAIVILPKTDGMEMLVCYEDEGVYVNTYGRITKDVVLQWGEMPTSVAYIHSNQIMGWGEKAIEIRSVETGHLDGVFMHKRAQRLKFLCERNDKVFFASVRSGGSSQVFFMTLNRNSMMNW
Protocol: as §1

[42] = molecular target: T42, PLK2 (Homo sapiens, UniProt Q9NYY3)
T42 construct: purchased Eurofins DiscoverX (KINOMEscan)
T42 sequence (Q9NYY3 whole entry): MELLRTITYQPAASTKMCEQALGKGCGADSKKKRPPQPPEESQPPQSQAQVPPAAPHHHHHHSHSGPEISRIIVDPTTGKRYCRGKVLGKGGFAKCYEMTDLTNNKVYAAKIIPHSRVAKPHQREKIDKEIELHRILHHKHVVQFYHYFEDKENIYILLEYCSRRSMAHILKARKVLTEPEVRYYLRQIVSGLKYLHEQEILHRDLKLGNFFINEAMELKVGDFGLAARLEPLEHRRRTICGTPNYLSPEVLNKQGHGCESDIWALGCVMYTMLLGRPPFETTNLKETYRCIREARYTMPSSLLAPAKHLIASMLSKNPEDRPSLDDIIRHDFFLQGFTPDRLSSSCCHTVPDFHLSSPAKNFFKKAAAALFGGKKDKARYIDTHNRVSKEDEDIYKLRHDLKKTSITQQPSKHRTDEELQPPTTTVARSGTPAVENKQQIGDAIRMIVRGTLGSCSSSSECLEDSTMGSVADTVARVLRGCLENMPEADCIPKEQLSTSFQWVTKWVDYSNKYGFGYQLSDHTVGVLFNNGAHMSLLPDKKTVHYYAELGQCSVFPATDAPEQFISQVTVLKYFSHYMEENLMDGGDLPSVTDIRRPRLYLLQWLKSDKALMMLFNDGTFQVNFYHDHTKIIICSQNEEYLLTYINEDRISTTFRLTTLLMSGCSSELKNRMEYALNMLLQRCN
Protocol: as §1

T1 sequence (P50613 whole entry): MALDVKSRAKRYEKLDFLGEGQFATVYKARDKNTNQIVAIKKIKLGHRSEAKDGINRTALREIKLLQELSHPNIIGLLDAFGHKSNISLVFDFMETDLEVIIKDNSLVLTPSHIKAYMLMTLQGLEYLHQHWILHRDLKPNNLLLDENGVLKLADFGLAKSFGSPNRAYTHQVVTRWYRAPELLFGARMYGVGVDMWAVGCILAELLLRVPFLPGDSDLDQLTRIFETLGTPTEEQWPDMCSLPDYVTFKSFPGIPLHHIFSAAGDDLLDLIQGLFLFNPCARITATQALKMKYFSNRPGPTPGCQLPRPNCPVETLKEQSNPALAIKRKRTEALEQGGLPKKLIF

Work on `Brc1ccc2nccc(Nc3ccc4cn[nH]c4c3)c2c1` [Compound 35, 6-Bromo-N-(1H-indazol-6-yl)quinolin-4-amine] yielded an activity at 1 µM [1] of 100%, an activity at 1 µM [2] of 100% and an activity at 1 µM [3] of 97%. For the same molecule, the activity at 1 µM [4] was 95%, the activity at 1 µM [5] was 100% and the activity at 1 µM [6] was 100%. The activity at 1 µM [7] was 100%, the activity at 1 µM [8] was 100% and the activity at 1 µM [9] was 100%. For the same molecule, the activity at 1 µM [10] was 100%, the activity at 1 µM [11] was 100% and the activity at 1 µM [12] was 100%. The activity at 1 µM [13] was 95%, the activity at 1 µM [14] was 100% and the activity at 1 µM [15] was 100%. It also gave an activity at 1 µM [16] of 81%, an activity at 1 µM [17] of 100% and an activity at 1 µM [18] of 89%. For the same molecule, the activity at 1 µM [19] was 91%, the activity at 1 µM [20] was 79% and the activity at 1 µM [21] was 100%. For the same molecule, the activity at 1 µM [22] was 100%, the activity at 1 µM [23] was 97% and the activity at 1 µM [24] was 100%. The activity at 1 µM [25] was 100%, the activity at 1 µM [26] was 100% and the activity at 1 µM [27] was 96%. It also gave an activity at 1 µM [28] of 100%, an activity at 1 µM [29] of 100% and an activity at 1 µM [30] of 100%. It also gave an activity at 1 µM [31] of 96%, an activity at 1 µM [32] of 100% and an activity at 1 µM [33] of 47%. It also gave an activity at 1 µM [34] of 97%, an activity at 1 µM [35] of 100% and an activity at 1 µM [36] of 100%. It also gave an activity at 1 µM [37] of 100%, an activity at 1 µM [38] of 100% and an activity at 1 µM [39] of 100%. The activity at 1 µM [40] was 97%, the activity at 1 µM [41] was 97% and the activity at 1 µM [42] was 100%.
